From paper PMC9124820, “In vitro evaluation of fenfluramine and norfenfluramine as victims of drug interactions” (Pharmacology Research & Perspectives, 2022)

What was measured:
[1] = Metabolic stability and metabolite identity, rat intestinal S9 fractions; assay type: in vitro ADME; settings: intestinal S9 fractions, pH 7.4; 1 µM FFA, rat intestine S9 fractions; outside assay detection limits
Experimental: LC‐MS/MS analyses to assess metabolic stability and identify the transporter substrate were performed using an API 4000 QTRAP mass spectrometer (SCIEX, Framingham, MA) with electrospray ionization in positive mode. Chromatography was performed using an Atlantis dC18 analytical column (100 × 2.1 mm, 5 µm; Waters Corporation, Milford, MA). Mobile phases were 0.2% v/v formic acid in water and 0.2% v/v formic acid in acetonitrile. For metabolic stability experiments, FFA and metabolites were eluted at a flow rate of 0.6 mL/min, with a linear gradient of 20%−80% acetonitrile from 0.30−2.0 min. For transporter substrate experiments, the gradient was slightly modified to achieve suitable chromatography. The mass transitions monitored were 232.0 > 159.0 for FFA and 348.0 > 330.0 for 1ʹ‐OH‐midazolam‐d4 internal standard. […]
FFA (1 or 10 µM) was incubated with liver and intestinal S9 fractions (2 mg protein/mL) at 37 ± 1°C in 0.2‐mL incubation mixtures containing potassium phosphate buffer (50 mM, pH 7.4), magnesium chloride (MgCl2) (3 mM), and EDTA (1 mM, pH 7.4), in the presence or absence of a three‐component cofactor mixture (NADPH‐generating system, uridine diphosphate glucuronic acid (UDPGA) [8 mM], and 3’‐phosphoadenosine 5’‐phosphosulfate [0.5 mM]). […] Supernatant fractions were analyzed by LC‐MS/MS.
(§1) To characterize substrate loss and metabolic stability, duplicate samples were analyzed by LC‐MS/MS to determine the change in substrate concentration over the incubation period. The rate constant of elimination (kel, min^−1) was determined from the time course of substrate loss based on single exponential decay (A(t)=A0(‐kelt)) . Half‐life in vitro was determined by the following equation: t1/2 = 0.693/kel. The in vitro intrinsic clearance (CLint) was calculated from the rate constant of elimination as follows: CLintμL/min/mgprotein=kelmin^‐1×incubationvolume(μL)/mgproteinperincubation.
(§2) Percent loss of substrate was determined by normalizing the mean analyte peak‐area ratio at each time point to the average of four replicates at the 0‐min time point (100%).

[2] = Metabolic stability and metabolite identity, human liver S9 fractions; assay type: in vitro ADME
Experimental: LC‐MS/MS analyses to assess metabolic stability and identify the transporter substrate were performed using an API 4000 QTRAP mass spectrometer (SCIEX, Framingham, MA) with electrospray ionization in positive mode. Chromatography was performed using an Atlantis dC18 analytical column (100 × 2.1 mm, 5 µm; Waters Corporation, Milford, MA). Mobile phases were 0.2% v/v formic acid in water and 0.2% v/v formic acid in acetonitrile. For metabolic stability experiments, FFA and metabolites were eluted at a flow rate of 0.6 mL/min, with a linear gradient of 20%−80% acetonitrile from 0.30−2.0 min. For transporter substrate experiments, the gradient was slightly modified to achieve suitable chromatography. The mass transitions monitored were 232.0 > 159.0 for FFA and 348.0 > 330.0 for 1ʹ‐OH‐midazolam‐d4 internal standard.
For metabolic characterization experiments, LC‐MS/MS analyses were performed using an Acquity Ultra Performance Liquid Chromatography system with an in‐line photodiode array detector and ethylene bridged hybrid C18 columns (2.1 × 100 mm, 1.7 µm; Waters Corporation) coupled to a Synapt G2 HDMS QTOF (Waters Corporation). Mobile phases were 0.1% v/v formic acid in water and 0.1% v/v formic acid in methanol. FFA and metabolites were eluted at a flow rate of 0.5 mL/min with a linear gradient of 2.0%−35% methanol from 1.0−10.0 min. The mass spectrometer was operated in positive mode with electrospray ionization. Data were acquired over the range 50−1200 m/z (mass‐to‐charge ratio) using capillary voltage, 3.5 kV; extraction cone voltage, 4.0 V; source temperature, 120°C; and desolvation temperature, 350°C. A continuous lock mass reference compound, fexofenadine, was sampled at 10‐s intervals for centroid data mass correction. Data were processed with MetaboLynx XS, a component of MassLynx (v. 4.1) software (Waters Corporation).
FFA (1 or 10 µM) was incubated with liver and intestinal S9 fractions (2 mg protein/mL) at 37 ± 1°C in 0.2‐mL incubation mixtures containing potassium phosphate buffer (50 mM, pH 7.4), magnesium chloride (MgCl2) (3 mM), and EDTA (1 mM, pH 7.4), in the presence or absence of a three‐component cofactor mixture (NADPH‐generating system, uridine diphosphate glucuronic acid (UDPGA) [8 mM], and 3’‐phosphoadenosine 5’‐phosphosulfate [0.5 mM]). The NADPH‐generating system consisted of NADP (1 mM, pH 7.4), glucose‐6‐phosphate (5 mM, pH 7.4), and glucose‐6‐phosphate dehydrogenase (1 U/mL). Reactions were initiated by adding the cofactor mix and were stopped at 0, 30, 60, or 120 min by adding an equal volume of acetonitrile. Cofactor controls were incubations performed in parallel in the absence of cofactor for 120 min. Additional incubations were performed with midazolam (10 μM) as a positive control to establish the metabolic competence of test systems. Samples were centrifuged at 920 × g for 10 min at 10°C. Supernatant fractions were analyzed by LC‐MS/MS.
as §1, §2

[3] = pH 7.4, 1 µM FFA, human liver S9 fractions 2 mg protein/mL, outside assay detection limits

CCNC(C)Cc1cccc(C(F)(F)F)c1 (racemic) [FFA, (RS)‐ethyl (α‐methyl‐3‐trifluoromethylphenethyl)amine]
half-life at 1 µM [1]: > 2 h
microsomal CLint at 1 µM [1]: < 2.9 µL/min/mg
percent of the drug remaining ([2]; human liver S9, 1 μM FFA with cofactors, 30 min): 1.9%
percent of the drug remaining ([2]; human liver S9, 1 μM FFA with cofactors, 60 min): 11.1%
percent of the drug remaining ([2]; human liver S9, 1 μM FFA with cofactors, 120 min): 20.9%
percent of the drug remaining ([2]; human liver S9, 1 μM FFA, absence of the cofactors): 21.6%
percent of the drug remaining ([2]; human liver S9, 10 μM FFA, absence of the cofactors): 22.9%
half-life at 1 µM [2, 3]: > 2 h
microsomal CLint at 1 µM [2, 3]: < 2.9 µL/min/mg
